Data: patent publication US10071974B2, “Morpholine and 1,4-oxazepane amides as somatostatin receptor subtype 4 (SSTR4) agonists” (Boehringer Ingelheim International GmbH, priority 2014, dated 2018)

Molecular target: human Somatostatin 4 Receptor (SSTR4) (Homo sapiens (Human), UniProt P31391)
Experiment: cAMP assay with human somatostatin 4 receptor (hSSTR4 expressing H4 cells)
Format: cell-based
Settings: read-out: SSTR4 agonism EC50

Chain of human Somatostatin 4 Receptor (SSTR4) (P31391 whole entry): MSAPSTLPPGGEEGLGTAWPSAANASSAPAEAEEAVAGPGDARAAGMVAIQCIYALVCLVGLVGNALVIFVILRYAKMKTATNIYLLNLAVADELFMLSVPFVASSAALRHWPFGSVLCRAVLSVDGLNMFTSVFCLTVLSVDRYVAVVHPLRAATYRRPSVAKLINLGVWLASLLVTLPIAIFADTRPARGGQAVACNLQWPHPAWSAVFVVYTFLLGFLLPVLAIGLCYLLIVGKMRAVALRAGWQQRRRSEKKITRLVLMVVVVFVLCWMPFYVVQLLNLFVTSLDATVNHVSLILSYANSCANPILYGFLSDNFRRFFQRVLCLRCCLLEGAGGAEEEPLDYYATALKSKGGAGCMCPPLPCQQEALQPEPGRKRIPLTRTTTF

First: CC(C)(COc1nccc2ccccc12)NC(=O)C1CNCCOC1 (racemic) [Example 16]
Second: CC(C)(NC(=O)C1CNCCOC1)c1cccc2ccccc12 (stereo not drawn) [Example 1]
The EC50 of the first is 84-fold higher: 393 nM for the first, 4.7 nM for the second. The second is the more potent here.

Going from `Cc1cccc2c(C(C)(C)NC(=O)C3CNCCOC3)cnn12` (racemic) [Example 33] to `Cn1nc(C(C)(C)NC(=O)C2CNCCOC2)c2ccccc21` (single isomer, unassigned) [Example 22], the EC50 rises from 7.7 nM to 192 nM (25-fold). The first is the more potent here.

First: Cc1ncc(C(C)(C)NC(=O)C2CNCCOC2)c2ccccc12 (racemic) [Example 40]
Second: Cc1cc2ccccc2c(C(C)(C)NC(=O)C2CNCCOC2)n1 (single isomer, unassigned) [Example 45]
The EC50 of the first is 990-fold lower: 0.8 nM for the first, 795 nM for the second.

Compared with `Cc1cc2ccccc2c(C(C)(C)NC(=O)C2CNCCCO2)n1` (racemic) [Example 47], `Cc1cc2ccccc2c(C(C)(C)NC(=O)C2CCNCCO2)n1` (racemic) [Example 50] is 4.1-fold higher in EC50: 25.9 nM for the first, 105 nM for the second.

Compared with `Cc1cccc2c(C(C)(C)NC(=O)C3CNCCOC3)noc12` (racemic) [Example 54], `CC(C)(NC(=O)C1CNCCOC1)c1noc2c(F)cccc12` (racemic) [Example 62] is 8-fold higher in EC50: 8.2 nM for the first, 65.7 nM for the second. The first is the more potent here.

First: Cc1cccc2c(C(C)(C)NC(=O)C3CNCCOC3)n[nH]c12 (racemic) [Example 58]
Second: CC(C)(NC(=O)C1CNCCOC1)c1n[nH]c2c(F)cccc12 (racemic) [Example 88]
The EC50 of the first is 2.7-fold lower: 4.1 nM for the first, 11.1 nM for the second.

Going from `CC(C)(NC(=O)C1CNCCCO1)c1noc2c(F)cccc12` (racemic) [Example 65] to `CC(C)(NC(=O)C1CCNCCO1)c1noc2c(F)cccc12` (racemic) [Example 68], the EC50 falls from 998 nM to 628 nM (1.6-fold).

`Cn1nc(C(C)(C)NC(=O)C2CNCCOC2)c2cccc(Cl)c21` (racemic) [Example 80] and `Cc1cccc2c(C(C)(C)NC(=O)C3CNCCOC3)nn(C)c12` (racemic) [Example 84] are within 1.5-fold of each other in EC50: 4.8 nM for the first, 4.5 nM for the second.

Compared with `CC(C)(NC(=O)C1CNCCOC1)c1n[nH]c2c(Cl)cccc12` (racemic) [Example 92], `Cc1cccc2c(C(C)(C)NC(=O)C3CNCCOC3)n[nH]c12` (single isomer, unassigned) [Example 59] is 430-fold higher in EC50: 2.5 nM for the first, 1070 nM for the second. The first is the more potent here.

First: COc1cccn2c(C(C)(C)NC(=O)C3CNCCOC3)ncc12 (racemic) [Example 123]
Second: Cc1cccn2c(C(C)(C)NC(=O)C3CNCCOC3)ncc12 (single isomer, unassigned) [Example 118]
The EC50 of the first is 2.7-fold lower: 32.4 nM for the first, 86.8 nM for the second. The first is the more potent here.

Going from `Cc1nc(C(C)(C)NC(=O)C2CNCCOC2)c2cccc(C)c2n1` (racemic) [Example 133] to `Cc1cccc2c(C(C)(C)NC(=O)C3CNCCOC3)nn(C)c12` (single isomer, unassigned) [Example 86], the EC50 rises from 55.3 nM to 1000 nM (18-fold). The first is the more potent here.

First: Cc1cccn2c(C(C)(C)NC(=O)C3CNCCOC3)ccc12 (racemic) [Example 135]
Second: Cc1cccn2c(C(C)(C)NC(=O)C3CNCCOC3)nc(C)c12 (single isomer, unassigned) [Example 129]
The EC50 of the first is 1.6-fold higher: 8.5 nM for the first, 5.3 nM for the second. The second is the more potent here.

First: Cc1cccn2c(C(C)(C)NC(=O)C3CNCCOC3)nc(C3CC3)c12 (racemic) [Example 138]
Second: Cc1cccn2c(C(C)(C)NC(=O)C3CNCCOC3)nc(C)c12 (single isomer, unassigned) [Example 130]
The EC50 of the first is 7.8-fold lower: 59.7 nM for the first, 466 nM for the second.

`Cc1cccn2c(C(C)(C)NC(=O)C3CCNCCO3)ncc12` (racemic) [Example 141] and `Cc1cccn2c(C(C)(C)NC(=O)C3CNCCCO3)ncc12` (racemic) [Example 144] are within 1.5-fold of each other in EC50: 90.2 nM for the first, 71.8 nM for the second.

Going from `Cc1cccn2c(C(C)(C)NC(=O)C3CNCCCO3)nc(C)c12` (racemic) [Example 147] to `Cc1cccn2c(C(C)(C)NC(=O)C3CNCCCO3)ncc12` (single isomer, unassigned) [Example 146], the EC50 rises from 185 nM to 1000 nM (5.4-fold).

Compared with `CC(C)(COc1nccc2ccccc12)NC(=O)C1CNCCOC1` (single isomer, unassigned) [Example 17], `Cc1ncc(C(C)(C)NC(=O)C2CNCCOC2)c2ccccc12` (single isomer, unassigned) [Example 42] is 72-fold lower in EC50: 30000 nM for the first, 415 nM for the second. The second is the more potent here.

Compared with `CC(C)(COc1nccc2ccccc12)NC(=O)C1CNCCOC1` (single isomer, unassigned) [Example 18], `C[C@H](NC(=O)C1CNCCOC1)c1cccc2ccccc12` (stereo partly drawn) [Example 3] is 12-fold lower in EC50: 209 nM for the first, 18 nM for the second. The second is the more potent here.

Compared with `Cn1nc(C(C)(C)NC(=O)C2CNCCCO2)c2ccccc21` (single isomer, unassigned) [Example 25], `Cn1nc(C(C)(C)NC(=O)C2CCNCCO2)c2ccccc21` (single isomer, unassigned) [Example 28] is 21-fold lower in EC50: 1000 nM for the first, 48.4 nM for the second. The second is the more potent here.

Compared with `Cc1cccc2c(C(C)(C)NC(=O)C3CNCCOC3)cnn12` (single isomer, unassigned) [Example 35], `CC(C)(NC(=O)C1CNCCOC1)c1ncc2c(Cl)cccn12` (single isomer, unassigned) [Example 119] is 39-fold lower in EC50: 2860 nM for the first, 73.9 nM for the second.

Going from `Cc1cc2ccccc2c(C(C)(C)NC(=O)C2CNCCCO2)n1` (single isomer, unassigned) [Example 49] to `Cc1cc2ccccc2c(C(C)(C)NC(=O)C2CCNCCO2)n1` (single isomer, unassigned) [Example 51], the EC50 falls from 988 nM to 42.9 nM (23-fold). The second is the more potent here.

Going from `Cc1cc2ccccc2c(C(C)(C)NC(=O)C2CCNCCO2)n1` (single isomer, unassigned) [Example 52] to `CC(C)(NC(=O)C1CCNCCO1)c1noc2c(F)cccc12` (single isomer, unassigned) [Example 69], the EC50 rises from 48.9 nM to 434 nM (8.9-fold).

First: Cc1cccc2c(C(C)(C)NC(=O)C3CNCCOC3)noc12 (single isomer, unassigned) [Example 56]
Second: CC(C)(NC(=O)C1CNCCOC1)c1noc2c(F)cccc12 (single isomer, unassigned) [Example 63]
The EC50 of the first is 18-fold higher: 737 nM for the first, 42 nM for the second. The second is the more potent here.

Going from `CC(C)(NC(=O)C1CNCCOC1)c1noc2c(F)cccc12` (single isomer, unassigned) [Example 64] to `CC(C)(NC(=O)C1CNCCCO1)c1noc2c(F)cccc12` (single isomer, unassigned) [Example 66], the EC50 falls from 1860 nM to 625 nM (3-fold).

Compared with `CC(C)(NC(=O)C1CNCCCO1)c1noc2c(F)cccc12` (single isomer, unassigned) [Example 67], `CC(C)(NC(=O)C1CCNCCO1)c1noc2c(F)cccc12` (single isomer, unassigned) [Example 70] is 42-fold lower in EC50: 23000 nM for the first, 544 nM for the second. The second is the more potent here.

Going from `Cn1nc(C(C)(C)NC(=O)C2CNCCOC2)c2cccc(F)c21` (single isomer, unassigned) [Example 78] to `Cn1nc(C(C)(C)NC(=O)C2CNCCOC2)c2cccc(Cl)c21` (single isomer, unassigned) [Example 81], the EC50 falls from 430 nM to 152 nM (2.8-fold).

Going from `CC(C)(NC(=O)C1CNCCOC1)c1n[nH]c2c(F)cccc12` (single isomer, unassigned) [Example 90] to `CC(C)(NC(=O)C1CNCCOC1)c1n[nH]c2c(Cl)cccc12` (single isomer, unassigned) [Example 94], the EC50 falls from 670 nM to 31 nM (22-fold).

First: Cc1cccn2c(C(C)(NC(=O)[C@@H]3CNCCO3)C3CC3)ncc12 (single isomer, unassigned) [Example 110]
Second: Cc1cccn2c(C(C)(C)NC(=O)C3CCNCCO3)ncc12 (single isomer, unassigned) [Example 142]
The EC50 of the first is 11-fold higher: 1000 nM for the first, 90.5 nM for the second.

Compared with `Cc1cccn2c(C(C)(NC(=O)[C@@H]3CNCCO3)C3CC3)ncc12` (single isomer, unassigned) [Example 111], `Cc1cccn2c(C(C)(C)NC(=O)C3CCNCCO3)ncc12` (single isomer, unassigned) [Example 143] is 3.7-fold lower in EC50: 290 nM for the first, 77.6 nM for the second.

First: Cc1cccn2c(C(C)(CC(C)C)NC(=O)[C@@H]3CNCCO3)ncc12 (single isomer, unassigned) [Example 112]
Second: Cc1cccn2c(C(C)(C)NC(=O)C3CNCCCO3)nc(C)c12 (single isomer, unassigned) [Example 148]
The EC50 of the first is 59-fold higher: 5500 nM for the first, 93 nM for the second. The second is the more potent here.

First: Cc1cccn2c(C(C)(CC(C)C)NC(=O)[C@@H]3CNCCO3)ncc12 (single isomer, unassigned) [Example 113]
Second: Cc1cccn2c(C(C)(C)NC(=O)C3CNCCCO3)nc(C)c12 (single isomer, unassigned) [Example 149]
The EC50 of the first is 2.6-fold lower: 380 nM for the first, 1000 nM for the second.

First: Cc1cccn2c(C3(NC(=O)[C@@H]4CNCCO4)CCOC3)ncc12 (single isomer, unassigned) [Example 114]
Second: Cc1cccn2c(C3(NC(=O)C4CNCCOC4)CCC3)ncc12 (single isomer, unassigned) [Example 131]
The EC50 of the first is 53-fold higher: 1000 nM for the first, 19 nM for the second. The second is the more potent here.

Compared with `Cc1cccn2c(C3(NC(=O)[C@@H]4CNCCO4)CCOC3)ncc12` (single isomer, unassigned) [Example 115], `Cc1cccn2c(C3(NC(=O)C4CNCCOC4)CCC3)ncc12` (single isomer, unassigned) [Example 132] is 34-fold higher in EC50: 294 nM for the first, 10000 nM for the second.

Compared with `Cc1nc(C(C)(C)NC(=O)C2CNCCOC2)n2cccc(F)c12` (single isomer, unassigned) [Example 121], `Cc1cccn2c(C(C)(C)NC(=O)C3CNCCOC3)nc(C3CC3)c12` (single isomer, unassigned) [Example 139] is 2-fold higher in EC50: 11.1 nM for the first, 22.2 nM for the second. The first is the more potent here.

`Cc1nc(C(C)(C)NC(=O)C2CNCCOC2)n2cccc(F)c12` (single isomer, unassigned) [Example 122] and `Cc1cccn2c(C(C)(C)NC(=O)C3CNCCOC3)nc(C3CC3)c12` (single isomer, unassigned) [Example 140] are the same in EC50: 1000 nM for the first, 1000 nM for the second.

`COc1cccn2c(C(C)(C)NC(=O)C3CNCCOC3)ncc12` (single isomer, unassigned) [Example 124] and `Cc1cccn2c(C(C)(C)NC(=O)C3CNCCOC3)ccc12` (single isomer, unassigned) [Example 137] are within 1.5-fold of each other in EC50: 1000 nM for the first, 1430 nM for the second.

Going from `COc1cccn2c(C(C)(C)NC(=O)C3CNCCOC3)ncc12` (single isomer, unassigned) [Example 125] to `Cc1cc2cccnc2c(C(C)(C)NC(=O)C2CNCCOC2)n1` (stereo not drawn) [Example 2], the EC50 rises from 16.4 nM to 90.1 nM (5.5-fold). The first is the more potent here.

Going from `Cc1nc(C(C)(C)NC(=O)C2CNCCOC2)c2cccc(C)c2n1` (single isomer, unassigned) [Example 134] to `CC(C)(COc1cnccc1C(F)(F)F)NC(=O)C1CNCCOC1` (stereo not drawn) [Example 4], the EC50 rises from 98.1 nM to 272 nM (2.8-fold). The first is the more potent here.

In the case of `CC(C)(NC(=O)[C@@H]1CNCCO1)C1CCCCC1` [Example 7], the EC50 is reported as 2420 nM.
